Measured values taken from patent US9988635B2, “Modulation of growth hormone receptor expression and insulin-like growth factor expression” (Antisense Therapeutics Limited, priority 2003, dated 2018).
Counter-ions that a name gives are not always drawn. In the oligonucleotide strings, read from the 5' end, every base follows the letter of its sugar. An asterisk marks phosphorothioate; unmarked linkages are phosphodiester. Other units and linkages are bracketed, terminal groups are in braces. A string of capitals states the bases alone. e = 2'-O-(2-methoxyethyl) (MOE); [5mC] = 5-methylcytosine; d = 2'-deoxy (DNA)

How the values were obtained:
[1] = cited from earlier work; for reduce growth hormone production and associated IGF-I sufficiently, % of cases: dosed orally
[2] = system: serum insulin-like growth factor-I; experiment: Serum IGF-I by radioimmunoassay, 1 week pilot study in Balb/C(a) mice; assay type: in vivo, mouse
Experimental: Forty male Balb/C(a) mice weighing 9 to […] were placed into cages, 4 animals per cage, and allowed to assimilate into their environment with new littermates ˜1 week prior (Day −7) to the commencement of 1 week study. Mice of this age would be at their maximum growth rate. Their body weights were measured and recorded every second day during this period. When mice weighed 11 g (day −2), a blood sample was collected under anesthesia as described below, and a serum IGF-I assay was performed to determine pre-treatment values and to aid in the assigning of mice to treatment groups in order to reduce animal variability. To obtain the blood sample, the animals were anaesthetized with pentobarbital (50 mg/kg i.p.) and non-fasting blood samples collected exactly 5 minutes later from the retrobulbar plexus through heparinized capillary tubes under light ether anesthesia. The 40 animals were placed into five groups with each group having a similar weight average and similar IGF-I average concentration for the trial.
Animals (n=8/group) were designated to the following five treatment groups:
(§1) Saline, antisense, mismatch control and octreotide samples were prepared, and coded for blinding. Animals were given a subcutaneous dose of saline every second day, and mismatch control or antisense with administration on days 0, 2, 4, 6. Animals were given twice daily doses of 25 μg octreotide. Animals were housed 4 per cage, for the duration of one week. They had access to a pre-determined quantity of standard mouse food and water at all times throughout the experiment. They were housed in a quiet, temperature- and humidity-maintained environment for the entirety of the study. At day 0 and before treatment on each day or second day, the animals had their body weight and food intake measured, enabling the correct dose of agent to be administered. The animals were monitored closely for any changes in fur, skin, eye, locomotion or other changes in behavior. No problems were observed. Every second day from day −7 to day 7 body weight and food intake were measured.
On day 7, one day after the last dose of antisense, and/or after the last octreotide dose, the animals were anaesthetized with pentobarbital (50 mg/kg i.p.) and non-fasting blood samples collected exactly 5 minutes later from the retrobulbar plexus through heparinized capillary tubes under light ether anesthesia (as on day −7 and 0).
At day −2 and day 7, serum IGF-I measurement was done by radioimmunoassay. Serum IGF-I level is the most widely used measure of growth hormone biological activity in human therapy. It is used to measure the efficacy of growth hormone antagonist treatments like Trovert, which block cells' responsiveness to excess growth hormone, and dopamine agonists and octreotide somatostatin […] drugs that block growth hormone secretion from the pituitary.

growth hormone receptor = experiment: [125I] hGH specific binding assay on liver microsomal membranes of treated mice; assay type: in vivo, mouse
Experimental: Specific binding assays were carried out with liver tissue using iodinated human growth hormone [^125I] hGH.
Microsomal membrane preparations were obtained as follows. 400 mg of tissue powder was homogenized in cold homogenizing buffer (50 mM Tris/HCl, 250 mM sucrose, pH 7.4). This was centrifuged at 2000 rpm for 10 min at 3° C. and the supernatant was saved. This was centrifuged again at 15,000 rpm for 20 min. Pellets were resuspended in 0.5 ml of RRA buffer with inhibitor (50 mM Tris, 20 mM MgCl2, pH 7.4). Microsomal preparation samples were stored at −80° C. until the specific binding assay.
The [^125I] hGH specific binding assay was done as follows. Four glass tubes were set up for each sample, two for (−), two for (+). Different sample and solutions were added in each tube as follows (i) 0.2 ml RRA buffer (50 mM Tris, 20 mM MgCl2, 0.1% BSA, pH 7.4); (ii) 0.1 ml membrane (½ or ¼ dilution); (iii) 0.1 ml bGH (10 μg/ml) for the (+) tube or 0.1 ml RRA buffer for the (−) tube; and (iv) 0.1 ml [^125I]-hGH tracer.
Samples were incubated at 4° C. with shaking overnight. The reaction was stopped with 2.5 ml of cold RRA, and the sample centrifuged at 2800 rpm for 25 min at 4° C. Supernatant was aspirated and pellets counted using the γ-counter. The specific binding capacity was calculated as: CPM(−)-CPM(+). Protein content of the microsomal samples was determined by the BCA protein assay.

[3] = system: growth hormone receptor mRNA; experiment: Growth hormone receptor mRNA levels in liver, 2 week study; assay type: in vivo, mouse; details: 30 mg/kg; two-week study
Experimental: (§2) A two-week study was done in similar fashion to the one-week study in Example 18, this time using ISIS 227446 at doses of 3, 5, 10, 20 and 30 mg/kg. The mismatch control was given at the same doses. Mice were treated with antisense compound or saline every other day for 14 days.
Growth hormone receptor mRNA levels in liver tissue samples from treated and untreated mice in this two-week study were assayed. The growth hormone receptor antisense inhibitor ISIS 227446 reduced growth hormone receptor mRNA levels in liver after the two-week study by 50% at the 20 mg/kg dose relative to saline control (p<0.001). The 30 mg/kg dose of ISIS 227446 yielded a 53% decrease in growth hormone receptor mRNA (p<0.0001). The mismatch control oligonucleotide ISIS 261303 (SEQ ID NO: 267), at 30 mg/kg, reduced growth hormone receptor mRNA levels by approximately 3%.

[4] = Body weight, body length, organ weights and food intake, 1 week pilot study; assay type: in vivo, mouse
Experimental: as §1
The serum remaining following the insulin-like growth factor-1 assay was isolated and stored at −80° C. The whole liver was removed rapidly for weighing and snap-frozen in labelled aluminum parcels by submersion in liquid-nitrogen. […]
This confirms published results of others. […] Weight was measured in two ways: weight trend (live animal), and final carcass weight. […]

serum IGF-I [5] = experiment: Serum IGF-I, 2 week study in mice; assay type: in vivo, mouse
Experimental: as §2
P-values were determined by t-test.

serum IGF-I [6] = details: animal models; decreased tumor volume in breast cancer; cited from earlier work
[7] = system: mouse growth hormone receptor mRNA; experiment: Inhibition of mouse growth hormone receptor mRNA levels in b.END cells, quantitative real-time PCR, incl. dose-response; assay type: cell-based; details: averages from three experiments
Experimental: The mouse brain endothelial cell line b.END was obtained from Dr. Werner Risau at the Max Plank Instititute (Bad Nauheim, Germany). b.END cells were routinely cultured in DMEM, high glucose (Gibco/Life Technologies, Gaithersburg, Md.) supplemented with 10% fetal calf serum (Gibco/Life Technologies, Gaithersburg, Md.). Cells were routinely passaged by trypsinization and dilution when they reached 90% confluence. Cells were seeded into 96-well plates (Falcon-Primaria #3872) at a density of 3000 cells/well for use in RT-PCR analysis.
When cells reached 65-75% confluency, they were treated with oligonucleotide. For cells grown in 96-well plates, wells were washed once with 100 μL OPTI-MEM™-1 reduced-serum medium (Invitrogen Corporation, Carlsbad, Calif.) and then treated with 130 μL of OPTI-MEM™-1 containing 3.75 μg/mL LIPOFECTIN™ (Invitrogen Corporation, Carlsbad, Calif.) and the desired concentration of oligonucleotide. Cells are treated and data are obtained in triplicate. After 4-7 hours of treatment at 37° C., the medium was replaced with fresh medium. Cells were harvested 16-24 hours after oligonucleotide treatment.
Total RNA was isolated using an RNEASY 96™ kit and buffers purchased from Qiagen Inc. (Valencia, Calif.) following the manufacturer's recommended procedures. Briefly, for cells grown on 96-well plates, growth medium was removed from the cells and each well was washed with 200 μL cold PBS. 150 μL Buffer RLT was added to each well and the plate vigorously agitated for 20 seconds. 150 μL of 70% ethanol was then added to each well and the contents mixed by pipetting three times up and down. The samples were then transferred to the RNEASY 96™ well plate attached to a QIAVAC™ manifold fitted with a waste collection tray and attached to a vacuum source. Vacuum was applied for 1 minute. 500 μL of Buffer RW1 was added to each well of the RNEASY 96™ plate and incubated for 15 minutes and the vacuum was again applied for 1 minute. An additional 500 μL of Buffer RW1 was added to each well of the RNEASY 96™ plate and the vacuum was applied for 2 minutes. 1 mL of Buffer RPE was then added to each well of the RNEASY 96™ plate and the vacuum applied for a period of 90 seconds. The Buffer RPE wash was then repeated and the vacuum was applied for an additional 3 minutes. The plate was then removed from the QIAVAC™ manifold and blotted dry on paper towels. The plate was then re-attached to the QIAVAC™ manifold fitted with a collection tube rack containing 1.2 mL collection tubes. RNA was then eluted by pipetting 140 μL of RNAse free water into each well, incubating 1 minute, and then applying the vacuum for 3 minutes.
Quantitation of growth hormone receptor mRNA levels was accomplished by real-time quantitative PCR using the ABI PRISM™ 7600, 7700, or 7900 Sequence Detection System (PE-Applied Biosystems, Foster City, Calif.) according to manufacturer's instructions. This is a closed-tube, non-gel-based, fluorescence detection system which allows high-throughput quantitation of polymerase chain reaction (PCR) products in real-time. As opposed to standard PCR in which amplification products are quantitated after the PCR is completed, products in real-time quantitative PCR are quantitated as they accumulate. This is accomplished by including in the PCR reaction an oligonucleotide probe that anneals specifically between the forward and reverse PCR primers, and contains two fluorescent dyes. A reporter dye (e.g., FAM or JOE, obtained from either PE-Applied Biosystems, Foster City, Calif., Operon Technologies Inc., Alameda, Calif. or Integrated DNA Technologies Inc., Coralville, Iowa) is attached to the 5′ end of the probe and a quencher dye (e.g., TAMRA, obtained from either PE-Applied Biosystems, Foster City, Calif., Operon Technologies Inc., Alameda, Calif. or Integrated DNA Technologies Inc., Coralville, Iowa) is attached to the 3′ end of the probe. […]

[8] = 30 mg/kg s.c. once every 2 days, 1 week
[9] = liver microsomal membranes, 30 mg/kg every second day for one week
[10] = 30 mg/kg s.c. every second day for one week
[11] = 30 mg/kg every second day for one week

For `CC(C)C[C@H]1C(=O)N2CCC[C@H]2[C@]2(O)O[C@](NC(=O)[C@@H]3C=C4c5cccc6[nH]c(Br)c(c56)C[C@H]4N(C)C3)(C(C)C)C(=O)N12` [bromocriptine mesylate], the “reduce growth hormone production and associated IGF-I sufficiently, % of cases” value [1] is listed as 10%.
For “ISIS 261303: negative control oligonucleotide, 8-base mismatch to ISIS 227446 (DNA AGAGAGCTACCTAACTAACA; chemistry not given here) [reference compound]”, the “% IGF-I reduction at day 7 compared to saline control at day 7” value (from here on “% IGF-I reduction”) [2, 8] was 21%, the “IGF-I (ng/ml) Day 7” value [2, 8] was 81.1 ± 19.16 ng/mL and the “% IGF-I reduction” value ([2]; 30 mg/kg s.c. once every 2 days, 1 week, listed as Mismatch) was 20.98%. The “IGF-I (ng/ml) Day −2” value ([2]; pre-treatment value, 30 mg/kg once every 2 days group) was 184.87 ± 55.6 ng/mL, the “effect on growth hormone receptor levels compared to the control saline group” value (growth hormone receptor; 30 mg/kg) was “no effect” and the “Specific binding/mg protein (cpm) ¼ dilution” value (growth hormone receptor; [9]) was 8431 ± 2663 cpm. For the same compound, the “Specific binding/mg protein (cpm) ½ dilution” value (growth hormone receptor; [9]) was 7090 ± 1877 cpm and the “reduction of growth hormone receptor mRNA levels in liver” value [3] was “approximately 3%”.
With `C[C@@H](O)[C@@H]1NC(=O)[C@H](CCCCN)NC(=O)[C@@H](Cc2c[nH]c3ccccc23)NC(=O)[C@H](Cc2ccccc2)NC(=O)[C@@H](NC(=O)[C@H](N)Cc2ccccc2)CSSC[C@@H](C(=O)N[C@H](CO)[C@@H](C)O)NC1=O` [Octreotide, octreotide, reference compound] the “liver weight (g/total body weight)” value ([4]; octreotide group) was “slight increase”.
With “acaaagatccatacctgaga (eA*e[5mC]*eA*eA*eA*dG*dA*dT*d[5mC]*d[5mC]*dA*dT*dA*d[5mC]*d[5mC]*eT*eG*eA*eG*eA; antisense) [ISIS 227446]” the “serum IGF-I as % of the control (saline) group” value [2, 10] was 55%, the “% IGF-I reduction” value [2, 8] was 45% and the “% IGF-I reduction” value ([2]; 30 mg/kg s.c. once every 2 days, 1 week, listed as ASO) was 44.51%. The “influence on body weight or organ weights” value ([4]; 30 mg/kg every second day) was “not sufficient to influence body weight or organ weights”, the “reduction of specific binding compared to saline, ¼ dilution” value (growth hormone receptor; [11]) was 39% and the “reduction of specific binding compared to saline, ½ dilution” value (growth hormone receptor; [11]) was 26%. For the same compound, the “growth hormone receptor levels (growth hormone binding activity) as % of control (saline) group” value (growth hormone receptor; [10]) was 61%, the “growth hormone receptor levels as % of the control (mismatch) group” value (growth hormone receptor; ½ dilution experiment, 30 mg/kg) was 59% and the “effect on serum IGF-I levels” value (serum IGF-I [5]; 3 mg/kg, equivalent to saline (untreated) control (separate experiment)) was “no effect”. For the same compound, the “reduction of growth hormone receptor mRNA levels in liver” value [3] was 53%.
In the case of Pegvisomant [Trovert], the drop-out rate ([1]; clinical trial experience) is given as 10%, the “serum insulin-like growth factor-I levels reduced by” value ([1]; human therapeutic Trovert doses, 12 week and greater than 1 year studies) is given as 50% and the “antibodies being made to Trovert, time of dosing” value ([1]; immunogenicity) is given as no more than 1 month. For the same compound, the “effective in % of patients” value ([1]; patients with acromegaly) was 90-95% and the “reduction of serum IGF-I” value (serum IGF-I [6]) was 20-50%.
For `C=CCN1C[C@H](C(=O)N(CCCN(C)C)C(=O)NCC)C[C@@H]2c3cccc4[nH]cc(c34)C[C@H]21` [cabergoline], the “reduce growth hormone production and associated IGF-I sufficiently, % of cases” value [1] is given as 10%.
For “TTACCGTATGGTTCCTCACT (chemistry not given here) [ISIS 260120, unrelated negative control oligonucleotide, reference compound]”, the “effect on serum IGF-I at 30 mg/kg as observed with the mismatch oligonucleotide” value (serum IGF-I [5]; 30 mg/kg, 2 weeks) was “not observed”.
In the case of “227477 (antisense e[5mC]*eA*e[5mC]*eT*eG*dT*dT*d[5mC]*dA*dT*dG*d[5mC]*dT*dG*dT*eA*eA*eT*eT*eT) [compound 227477]”, the “% INHIB of mouse growth hormone receptor mRNA levels” value [7] is reported as 61%.
